We go through two compounds from patent US4110345A, “2,2-Difluoro-1,3-benzodioxole-5-(α-alkyl)-acetic acids, and their use for the preparation of insecticides and acaricides” (American Cyanamid Company, priority 1977, dated 1978).

The structures appear in SMILES notation. Like-named read-outs stand apart in the source and are kept apart here.

For experiment [1], the system named is Third-Instar Tobacco Budworm Larvae. Put plainly: whole plant or invertebrate. The conditions noted are these: Heliothis virescens, in Gossypium hirsutum, foliar, 72 h, larval counts after 72 hours; for mortality at 30 ppm: read-out: Average % Mortality, 30 ppm; for mortality at 100 ppm: read-out: Average % Mortality, 100 ppm; for mortality at 300 ppm: read-out: Average % Mortality, 300 ppm; for mortality at 900 ppm: read-out: Average % Mortality, 900 ppm. Type of experiment: in vivo. From the text: Residual insecticidal activity obtained with foliar treatment of cotton plants Young cotton plants with at least two expanded true leaves growing in 10 cm plastic pots were dipped, usually one leaf at a time in a 65% acetone-35% water solution of test compound with agitation for three seconds. The concentration of the compound in the solutions was 30 ppm, 100 ppm, 300 ppm or 900 ppm of active ingredient. After the leaves had dried, two leaves from each of two plants were excised and placed in petri dishes (90 mm × 100 mm) on moist filter paper (9 cm Whatman No. 1). Five third-instar tobacco budworm larvae were placed on each leaf and the petri dish capped. The infested dishes were than placed in a holding room with continuous light, ambient temperature of 80° F and 50% r.h. Larval counts were made after 72 hours. The remaining plants were placed under high intensity lights in the greenhouse adjusted to provide 14 hours of light per day. Leaf samples were assayed with third instar tobacco budworm larvae after 3, 7, 10 and 14 days exposure in the greenhouse. The data obtained are summarized in Table I. |Residual Insecticidal Activity of a Test Compound on Cotton Plants Using |Third-Instar Tobacco Budworm Larvae for Bioassay | * = Average % Mortality 20 TBW/Point

For experiment [2], the system named is adult Boophilus microplus ticks. The experiment is described as follows: whole plant or invertebrate. The note with it: Rhipicephalus microplus, in Bos taurus, topical, 48 h, read-out: Percent Adult Tick Mortality. The experiment is classed as in vivo. On the procedure: The effectiveness of an acaricide prepared from the novel 2,2-difluoro-1,3-dioxole-5-(α-alkyl)acetic acids of the present invention for the control of adult Boophilus microplus ticks is determined in the following test wherein the test compound is dissolved in 10% acetone-90% water mixture in sufficient amounts to give solutions containing […] ppm of test compound.
Adult engorged female ticks are dipped in the test solutions for 3 seconds and placed in individual containers and held for 48 hours in a room maintained at 80° F and 50% r.h. At the end of the holding period the ticks are examined and egg deposits counted. […]
Percent Adult Tick Mortality

Usually mortality stands for the share of the test organisms that died. For `CC(C)C(C(=O)OC(C#N)c1cccc(Oc2ccccc2)c1)c1ccc2c(c1)OC(F)(F)O2` (stereo not shown) [drawing 6], the mortality at 30 ppm in experiment [1] (0 days residual) is 45%; in experiment [1] (3 days residual), 0%; in experiment [1] (7 days residual), 10%; in experiment [1] (10 days residual) it was 10%; in experiment [1] (14 days residual), 10%. In addition, the mortality at 100 ppm is 90% in experiment [1] (0 days residual); 55% in experiment [1] (3 days residual); 55% in experiment [1] (7 days residual); 65% in experiment [1] (10 days residual); 10% in experiment [1] (14 days residual). In addition, the mortality at 300 ppm in experiment [1] (0 days residual) was 95%; in experiment [1] (3 days residual), 90%; in experiment [1] (7 days residual), 100%; in experiment [1] (10 days residual), 90%; in experiment [1] (14 days residual), 95%. Further, the mortality at 900 ppm in experiment [1] (0 days residual), in experiment [1] (3 days residual), in experiment [1] (7 days residual), in experiment [1] (10 days residual) and in experiment [1] (14 days residual) was 100% in each case.

In the case of `CC(C)C(C(=O)OC(C#N)c1cccc(Oc2ccccc2)c1)c1ccc2c(c1)OC(F)(F)O2` (stereo not shown) [drawing 7], in experiment [2], the mortality at 7.3 ppm stood at 80.2%, the mortality at 15.6 ppm amounted to 85.8%, the mortality at 31.2 ppm is 88.4% and the mortality at 62.5 ppm came out at 99.7%. The mortality at 125 ppm in experiment [2] came out at 98.3%.
